Values quoted from earlier work in patent US12391671B2, “Allosteric EGFR inhibitors and methods of use thereof” (Dana-Farber Cancer Institute, Inc., priority 2019, dated 2025).

Test system: NSCLC resistant to gefitinib or erlotinib
Settings: patients with NSCLC that have developed resistance to gefitinib or erlotinib; cited from earlier work

For `CN(C)C/C=C/C(=O)Nc1cc2c(Nc3ccc(F)c(Cl)c3)ncnc2cc1O[C@H]1CCOC1` [afatinib], the “RR (response rate)” value is listed as “less than 10%”.
